PMC4139061, “Structural basis of nucleoside and nucleoside drug selectivity by concentrative nucleoside transporters” (eLife, 2014)

Molecular target: T1, hCNT1 (Homo sapiens, UniProt O00337)
T1 sequence (O00337 1-649): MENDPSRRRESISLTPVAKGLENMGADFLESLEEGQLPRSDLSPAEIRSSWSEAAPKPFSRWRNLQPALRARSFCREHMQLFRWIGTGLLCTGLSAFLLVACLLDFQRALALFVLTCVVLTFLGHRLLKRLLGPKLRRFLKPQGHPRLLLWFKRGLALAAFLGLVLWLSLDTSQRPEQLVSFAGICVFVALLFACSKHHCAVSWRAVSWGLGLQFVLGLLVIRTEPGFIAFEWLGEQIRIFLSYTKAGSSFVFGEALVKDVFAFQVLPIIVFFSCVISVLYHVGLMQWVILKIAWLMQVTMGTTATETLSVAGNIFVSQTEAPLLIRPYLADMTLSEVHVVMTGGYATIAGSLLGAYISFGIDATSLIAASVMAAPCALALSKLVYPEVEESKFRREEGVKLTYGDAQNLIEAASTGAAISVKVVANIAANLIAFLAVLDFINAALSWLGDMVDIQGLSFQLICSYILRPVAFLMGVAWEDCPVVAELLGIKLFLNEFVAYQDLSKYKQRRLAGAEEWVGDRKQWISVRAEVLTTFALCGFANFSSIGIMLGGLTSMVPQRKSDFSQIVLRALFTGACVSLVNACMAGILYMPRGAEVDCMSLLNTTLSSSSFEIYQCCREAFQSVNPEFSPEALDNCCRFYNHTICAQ
Assay: two-electrode voltage-clamp of Na+ currents / total charge in Xenopus oocytes expressing hCNT1
Type: cell-based
Text: To detect nucleoside transport by hCNTs, we turned to two-electrode voltage-clamp electrophysiological recording. Because hCNTs are Na^+-nucleoside symporters, one can measure the current generated by the Na^+ transport that is coupled with nucleoside transport. We injected Xenopus oocytes with mRNA coding for each of the hCNTs and measured inward Na^+ currents elicited by the addition of different nucleosides to the extracellular side.
The genes coding for the three hCNTs and vcCNT were cloned into a pGEM-HE vector. Plasmids were linearized using either SphI or NheI, and mRNA was transcribed using the mMESSAGE mMACHINE T7 Transcription Kit (Ambion, Grand Island, NY). Defolliculated Xenopus laevis oocytes were purchased from Ecocyte Bioscience (Austin, TX). Individual oocytes were injected with 40 ng of mRNA using a 10-μl microdispenser (Drummond Scientific, Broomall, PA) fitted with a tapered glass pipette tip and incubated at 17 °C for 4–5 days in ND96 buffer (96 mM NaCl, 2 mM KCl, 1 mM MgCl2, 1.8 mM CaCl2, and 5 mM HEPES pH 7.5) with 0.1% penicillin and streptomycin before recording.
The oocyte-recording chamber was gravity-perfused with ND96 buffer at a rate of 2 ml/min. Membrane currents were measured using an Oocyte Clamp (OC-725C; Warner Instruments, Hamden, CT). Individual oocytes were penetrated with two microelectrodes filled with 3 M KCl (0.5–1.0 MΩ). All electrophysiological experiments were conducted at room temperature. The OC-725C Oocyte Clamp was computer-interfaced via an Axon Digidata 1550 and controlled by Axoscope software (Molecular Devices, Sunnyvale, CA). The current signals were filtered at 20 Hz and sampled at intervals of 20 ms. The signals were filtered at 0.5 Hz by use of pCLAMP 10.4 software for data presentation. […] Cells were discarded if resting membrane potentials were unstable or more positive than −30 mV. Oocyte membrane potentials were clamped at −90 mV for holding potentials to measure transporter-generated currents. All data are shown as means ± SEM.

## Cc1cc2cn([C@@H]3O[C@H](CO)[C@@H](O)C3(F)F)c(=O)nc2[nH]1 [pyrrolo-gemcitabine]
200 μM nucleoside, hCNT1-expressing Xenopus oocytes, mean of Exp. 1-11
  Total charge transported, Mean: 0.823 μC
fold, hCNT1 oocytes, 200 μM
  total charge uptake higher than gemcitabine: sevenfold
Ratio of total charge, 200 μM each, hCNT1, mean of Exp. 1-11
  Qpyr-gem/Qgem, Mean: 6.829
